Legend:
SARS-CoV-2 PLpro [1] = biological target: T1, SARS-CoV-2 PLpro (Severe acute respiratory syndrome coronavirus 2, UniProt P0DTD1); details: cited from earlier work
MERS-CoV PLpro = details: cited from earlier work
CYP3A4 = CYP3A4 (Homo sapiens, UniProt P08684)
SARS-CoV-2 PLpro [2] = biological target: T1, SARS-CoV-2 PLpro; assay: Papain-like protease; details: variable results in dose-dependent study, IC50 not determined
[3] = tested on: SARS-CoV-2 RNA (ORF1b, Spike) in infected Caco-2 cells; type: cell-based
[4] = tested on: SARS-CoV-2 infected Caco-2 cells (IFN-α, IL-6, OAS1 mRNA); type: cell-based, Human; details: 20 μg/mL
Balb/c mice [5] = details: 25, 50, and 100 mg/kg, intraperitoneal
Balb/c mice [6] = tested on: Balb/c mice

Chain of CYP3A4 (P08684 whole entry): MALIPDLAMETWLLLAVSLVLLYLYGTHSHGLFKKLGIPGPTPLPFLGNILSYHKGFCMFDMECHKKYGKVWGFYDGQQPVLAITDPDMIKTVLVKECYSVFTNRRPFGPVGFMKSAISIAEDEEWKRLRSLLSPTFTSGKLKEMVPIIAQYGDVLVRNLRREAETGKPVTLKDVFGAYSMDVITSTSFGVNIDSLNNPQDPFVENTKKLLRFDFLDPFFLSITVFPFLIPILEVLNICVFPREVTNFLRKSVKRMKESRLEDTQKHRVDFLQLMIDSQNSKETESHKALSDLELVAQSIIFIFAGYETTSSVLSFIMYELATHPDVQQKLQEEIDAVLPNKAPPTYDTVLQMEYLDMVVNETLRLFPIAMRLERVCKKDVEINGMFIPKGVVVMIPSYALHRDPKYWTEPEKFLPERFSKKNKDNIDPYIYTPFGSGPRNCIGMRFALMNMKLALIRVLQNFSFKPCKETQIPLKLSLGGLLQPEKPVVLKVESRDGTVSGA

## Cc1ccc(N)cc1C(=O)N[C@H](C)c1cccc2ccccc12 [GRL0617]
SARS-CoV-2 PLpro [1]
  inhibitory activity in a cell-based assay: moderate to weak
MERS-CoV PLpro
  activity against MERS-CoV PLpro: inactivity

## CC1(C)[C@H]2COc3ccc4ccccc4c3[C@H]2N=C2SC=C(c3ccc(S(=O)(=O)N4CCOCC4)cc3)N21 [SIMR1493]
CYP3A4
  CYP3A4 IC50: 134 µM

## COC(=O)C[C@@H]1COc2ccccc2[C@H](C(=O)NC(C)(C)C)N(CCc2c[nH]c3ccc(OC)cc23)C(=O)[C@@H]1c1nnc(-c2cccc(C(F)(F)F)c2)o1 [SIMR2304]
SARS-CoV-2 PLpro [2]
  PLpro inhibitory activity, initial screening: very strong inhibitory activity

## COc1ccc2[nH]c3c(c2c1)C[C@]1(OC)CC[C@H]2c4[nH]c5ccccc5c4CCN2[C@@H]1C3 [SIMR3030]
[3]; 20 μg/mL, 1, 6 and 12 h
  Spike RNA inhibition: observed only after 6 and 12 h
[3]; 20 μg/mL, at 1, 6 and 12 h
  viral ORFb1 RNA inhibition: more than 70%
[4]; at 1, 3 and 12 h
  IL-6 mRNA expression: significantly reduced
  OAS1 mRNA expression: significantly reduced
[4]; at 1 and 3 h
  IFN-α mRNA expression: significantly reduced
Balb/c mice [5]
  signs of toxicity or body weight loss, single dose: no signs of toxicity or body weight loss
Balb/c mice [6]; 25 mg/kg multiple dose, hematological analysis
  platelet population: slight reduction
Balb/c mice [6]; 12.5 and 25 mg/kg, intraperitoneal, daily for 14 days
  signs of toxicity or weight loss, multiple dose: no signs of toxicity or weight loss
Balb/c mice [6]; H&E staining, 12.5 and 25 mg/kg multiple dose
  microscopic investigation of organs (liver, spleen, kidneys, heart, lungs): no histologic variations and no signs of toxic injury
